Legend:
[1] = species on record: Rattus norvegicus; assay: animal or person; conditions: read-out: Inhibition
Description: Percent inhibition was determined in vivo in male Dawley rats at a dose of 10 mg/kg by rat carrageenan-induced hyperalgesia assay

[2] = species on record: Rattus norvegicus; assay: animal or person; assay type: functional
[3] = species on record: Rattus norvegicus; assay: animal or person; assay type: functional; remark: listed apart in the source
Description: Effective dose was determined in vivo in male lewis rats by rat adjuvant-induced arthritis assay

[4] = species on record: Rattus norvegicus; assay: animal or person; assay type: functional; remark: listed apart in the source
Description: Effective dose was determined in vivo in male Dawley rats by rat carrageenan-induced hyperalgesia assay

[5] = in vivo; conditions: male, rat, iv, 10 mg/kg
[6] = in vivo; conditions: male, rat, po, 10 mg/kg
[7] = species on record: Rattus norvegicus; assay type: functional, Stomach
Description: Concentration at which gastric damage will occur was determined in rat

[8] = species on record: Rattus norvegicus; assay: animal or person; assay type: functional; remark: listed apart in the source
[9] = in vivo; conditions: male, rat, po, 20 mg/kg
[10] = in vivo; conditions: male, rat, po, 10 mg/kg; remark: listed apart in the source

SMILES | ED50 [2] [mg/kg] | ED50 [3] [mg/kg] | ED50 [4] [mg/kg] | half-life [5] [h] | other results
CN1C(C(=O)Nc2ccccn2)=C(O)c2ccccc2S1(=O)=O [PIROXICAM] | 2.4 |  |  |  | inhibition in vivo at 10 mg/kg [1]: 52%
N#Cc1cc(-c2ccc(F)cc2)n(-c2ccc(S(N)(=O)=O)cc2)n1 | 7.5 | 0.51 | 67.1 |  | 
Cc1ccc(-c2cc(C(F)(F)F)nn2-c2ccc(S(N)(=O)=O)cc2)cc1 [CELECOXIB] | 7.1 | 0.37 | 34.5 | 3.5 | 
Cc1ccc(-c2cc(C(F)F)nn2-c2ccc(S(N)(=O)=O)cc2)cc1 | 2.4 | 0.35 | 37.3 |  | half-life [6]: 3.3 h
COc1ccc2c(c1)c(CC(=O)O)c(C)n2C(=O)c1ccc(Cl)cc1 [INDOMETHACIN] | 1.15 | 0.11 | 4.1 |  | Ulceration [7]: 7 mg/kg
COc1ccc2cc([C@H](C)C(=O)O)ccc2c1 [NAPROXEN] | 1.6 |  |  |  | Ulceration [7]: 255 mg/kg; inhibition in vivo at 10 mg/kg [1]: 66%
COc1ccc(-c2cc(C(F)F)nn2-c2ccc(S(N)(=O)=O)cc2)cc1F [DERACOXIB] | 18.6 | 0.05 | 33 | 3.5 | 
COc1ccc(-c2cc(C(F)F)nn2-c2ccc(S(N)(=O)=O)cc2)cc1 | 13.7 | 0.01 | 36 |  | 
CS(=O)(=O)c1ccc(-n2nc(C(F)(F)F)cc2-c2ccc(F)cc2)cc1 [SC-58125] | 10.5 | 0.41 | 58.3 | 221 | 
NS(=O)(=O)c1ccc(-n2nc(C(F)(F)F)cc2-c2ccc(Cl)cc2)cc1 | 5.4 | 0.07 |  |  | ED50 [8]: 6.6 mg/kg; half-life [9]: 117 h
COc1ccc(-c2cc(C(F)(F)F)nn2-c2ccc(S(N)(=O)=O)cc2)cc1 |  |  |  |  | half-life [10]: 5.6 h
NS(=O)(=O)c1ccc(-n2nc(C(F)F)cc2-c2ccc(Cl)cc2)cc1 | 13 | 0.63 | 7.7 | 4.5 | 
NS(=O)(=O)c1ccc(-n2nc(C(F)(F)F)c(Cl)c2-c2ccc(Cl)cc2)cc1 | 8.8 | 0.006 |  |  | 

From ChEMBL document CHEMBL1130002, “Synthesis and biological evaluation of the 1,5-diarylpyrazole class of cyclooxygenase-2 inhibitors: identification of 4-[5-(4-methylphenyl)-3-(trifluoromethyl)-1H-pyrazol-1-yl]benze nesulfonamide (SC-58635, celecoxib)” (J Med Chem, 1997)
